According to publication PMC8470279, “Biosynthesis of the Novel Endogenous 15-Lipoxygenase Metabolites N-13-Hydroxy-octodecadienoyl-ethanolamine and 13-Hydroxy-octodecadienoyl-glycerol by Human Neutrophils and Eosinophils” (Cells, 2021):
Read-outs that look alike come from different tables or passages of the source.

Columns and labels:
[1] = molecular target: human recombinant CB1 receptor (Homo sapiens, UniProt P21554); test: CB1 receptor binding assay; settings: mean ± SD; for CB1 Receptor Max Tested (% Displacement): 10 µM
Protocol: (§1) The analysis of CB1 and CB2 receptor binding was performed exactly as described in [21].

[2] = molecular target: T1, PPAR-α (Homo sapiens, UniProt Q07869); test: PPAR-α functional (transcriptional) activity assay kit; assay type: cell-based; settings: 30 µM, overnight
T1 construct: purchased
T1 sequence (Q07869 1-468): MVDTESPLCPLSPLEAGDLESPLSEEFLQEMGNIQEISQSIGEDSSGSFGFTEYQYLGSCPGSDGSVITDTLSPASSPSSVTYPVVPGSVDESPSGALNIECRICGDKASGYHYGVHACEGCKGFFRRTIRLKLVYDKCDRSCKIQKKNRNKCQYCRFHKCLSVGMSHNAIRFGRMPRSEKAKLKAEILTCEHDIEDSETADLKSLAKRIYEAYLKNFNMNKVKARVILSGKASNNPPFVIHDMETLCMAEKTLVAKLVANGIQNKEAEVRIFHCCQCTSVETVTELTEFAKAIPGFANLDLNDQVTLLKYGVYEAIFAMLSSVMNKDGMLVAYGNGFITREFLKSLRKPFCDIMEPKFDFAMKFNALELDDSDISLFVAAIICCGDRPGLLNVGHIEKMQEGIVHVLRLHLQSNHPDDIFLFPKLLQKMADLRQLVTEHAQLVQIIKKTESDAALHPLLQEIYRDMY
Protocol: (§2) These assays we preformed exactly as described in [21].
(§3) Figure 10 Impact of 13-HODE and 13-HODE-G on PPAR activity. Cells were incubated with 30 µM 13-HODE, 13-HODE-G, or OEA overnight and PPAR activity was measured using the PPAR assay kits according to the manufacturers’ instructions. Rosiglitazone (10 µM) and GW 590735 (100 nM) were utilized as positive controls for the (A) PPAR-γ and (B) PPAR-α assays, respectively. Data represent the mean (± SEM) of three (PPAR-γ) or five (PPAR-α) experiments, each performed in triplicates. p values were obtained by performing a 2-way ANOVA with a Sidak multiple comparison tests. **** p < 0.0001, *** p < 0.001. ns: p > 0.05.

[3] = Detection of 13-HODE-G in human samples by LC-MS/MS; settings: mean ± SEM, n = 5
[4] = molecular target: human recombinant CB2 receptor (Homo sapiens, UniProt P34972); test: CB2 receptor binding assay; settings: mean ± SD; for CB2 Receptor Max Tested (% Displacement): 10 µM
Protocol: as §1

[5] = molecular target: T2, human recombinant TRPV1 (Homo sapiens, UniProt Q8NER1); test: TRPV1-mediated intracellular calcium elevation; assay type: cell-based; settings: mean ± SD; for IC50: assayed using 100 nM capsaicin, read-out: Desensibilization (IC50); for Emax: read-out: Efficacy (% Max Response)
T2 construct: expressed in transfected cells
Description: as §2

[6] = system: human eosinophils; test: Biosynthesis of 15-LO metabolites by human eosinophils; settings: for Times more metabolite in eosinophils than in neutrophils: same donors, combination of LA, 1-LG and LEA at 3 µM each, 5 min; for Time of maximal levels of 15-lipoxygenase metabolite / Delay before metabolism into 15-lipoxygenase counterpart: 3 µM substrate; for Time of maximal levels of 15-lipoxygenase metabolite: longest time point studied
[7] = molecular target: T3, PPAR-γ (Homo sapiens, UniProt P37231); test: PPAR-γ functional (transcriptional) activity assay kit; assay type: cell-based; settings: 30 µM, overnight
T3 construct: purchased
T3 sequence (P37231 1-505): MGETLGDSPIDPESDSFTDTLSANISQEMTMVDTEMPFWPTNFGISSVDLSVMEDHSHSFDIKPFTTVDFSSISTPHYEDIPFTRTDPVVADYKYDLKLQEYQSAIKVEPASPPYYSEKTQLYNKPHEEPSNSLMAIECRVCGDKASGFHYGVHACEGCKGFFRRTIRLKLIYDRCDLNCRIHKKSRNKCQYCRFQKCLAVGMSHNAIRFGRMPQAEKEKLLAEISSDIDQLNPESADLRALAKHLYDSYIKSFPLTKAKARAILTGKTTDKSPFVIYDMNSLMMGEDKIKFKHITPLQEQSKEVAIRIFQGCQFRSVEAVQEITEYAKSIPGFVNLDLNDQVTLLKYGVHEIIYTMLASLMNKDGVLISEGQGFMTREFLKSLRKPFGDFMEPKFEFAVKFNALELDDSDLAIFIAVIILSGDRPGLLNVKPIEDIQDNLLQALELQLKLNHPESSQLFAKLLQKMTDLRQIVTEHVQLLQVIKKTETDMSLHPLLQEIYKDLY
Protocol: as §2, §3

[8] = molecular target: T4, human recombinant 15-LO-2 (Homo sapiens, UniProt O15296); set-up: method as in PMID 33915294; settings: previous publication; cited from earlier work
T4 sequence (O15296 1-676): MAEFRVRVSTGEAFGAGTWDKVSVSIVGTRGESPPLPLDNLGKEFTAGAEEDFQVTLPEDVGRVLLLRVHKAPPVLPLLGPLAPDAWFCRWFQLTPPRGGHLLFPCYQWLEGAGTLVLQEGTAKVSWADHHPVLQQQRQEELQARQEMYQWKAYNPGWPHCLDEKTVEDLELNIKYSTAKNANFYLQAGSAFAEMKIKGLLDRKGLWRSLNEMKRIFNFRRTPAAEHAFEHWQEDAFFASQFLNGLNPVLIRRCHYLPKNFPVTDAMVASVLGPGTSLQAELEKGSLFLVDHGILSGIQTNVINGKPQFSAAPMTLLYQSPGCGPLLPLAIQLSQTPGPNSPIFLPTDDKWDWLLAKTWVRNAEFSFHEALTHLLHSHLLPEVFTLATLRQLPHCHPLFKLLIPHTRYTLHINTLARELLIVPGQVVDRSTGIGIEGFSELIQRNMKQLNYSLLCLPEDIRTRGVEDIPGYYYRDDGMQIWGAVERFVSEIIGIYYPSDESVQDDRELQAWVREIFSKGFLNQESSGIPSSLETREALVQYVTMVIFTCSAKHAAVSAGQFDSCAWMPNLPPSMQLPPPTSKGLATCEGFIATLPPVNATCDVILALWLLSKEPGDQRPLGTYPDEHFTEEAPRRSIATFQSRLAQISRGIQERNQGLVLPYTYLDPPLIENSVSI

[9] = system: human eosinophils; test: Hydrolysis/stability of added 13-HODE-EA in eosinophil suspensions; assay type: in vitro ADME; settings: eosinophils 10^6 cells/mL
[10] = molecular target: T5, human recombinant 15-LO-1 (Homo sapiens, UniProt P16050); set-up: method as in PMID 33915294; settings: previous publication; cited from earlier work
T5 sequence (P16050 1-662): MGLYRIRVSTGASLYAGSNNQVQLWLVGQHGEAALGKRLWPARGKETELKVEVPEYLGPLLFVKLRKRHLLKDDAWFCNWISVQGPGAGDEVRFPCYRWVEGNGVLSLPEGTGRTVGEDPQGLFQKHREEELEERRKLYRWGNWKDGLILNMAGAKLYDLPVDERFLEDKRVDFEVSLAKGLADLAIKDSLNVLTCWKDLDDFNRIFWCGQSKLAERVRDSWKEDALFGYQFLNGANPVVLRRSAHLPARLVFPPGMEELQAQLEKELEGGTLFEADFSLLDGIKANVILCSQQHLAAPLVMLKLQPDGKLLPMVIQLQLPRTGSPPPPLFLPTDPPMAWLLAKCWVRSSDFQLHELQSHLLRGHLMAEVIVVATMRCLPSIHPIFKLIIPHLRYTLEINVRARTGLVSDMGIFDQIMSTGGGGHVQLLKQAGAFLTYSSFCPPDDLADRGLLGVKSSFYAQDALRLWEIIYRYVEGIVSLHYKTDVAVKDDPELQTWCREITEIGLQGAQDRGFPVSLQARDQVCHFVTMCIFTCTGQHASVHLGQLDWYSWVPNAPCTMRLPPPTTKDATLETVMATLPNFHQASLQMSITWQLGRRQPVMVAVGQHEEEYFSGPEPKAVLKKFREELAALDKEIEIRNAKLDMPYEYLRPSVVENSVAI

[11] = system: human neutrophils; test: Hydrolysis/stability of added 13-HODE-EA in neutrophil suspensions; assay type: in vitro ADME; settings: neutrophils 5 × 10^6 cells/mL
[12] = system: human neutrophils; test: Biosynthesis of 15-LO metabolites by human neutrophils
[13] = molecular target: T4, human recombinant 15-LO-2; test: Metabolism of substrates by recombinant 15-LO-2, LC-MS/MS; assay type: biochemical; settings: 10 µM 1-LG, 15 min, 37 °C
Protocol: (§4) Recombinant human 15-LO-1 and 15-LO-2 enzymes were added to HEPES 25 mM + 0.01% Triton (14 μg/mL for 15-LO-1, 56 μg/mL for 15-LO-2). A total of 10 μM of the fatty acids were added to the buffer for 5 min (15-LO-1) or 15 min (15-LO-2), at 37 °C. The final volume of the reaction mix was 100 µL. After the incubation, 50 µL of NaBH4 1M was added to the reaction, for 5 min at 37 °C. The reactions were stopped by adding 0.5 mL of cold (−20 °C) methanol +0.01% acetic acid and kept at −30 °C until further processing.
(§5) Figure 3 Metabolism of 1-LG, LA and LEA by human recombinant 15-LO-1 and 15-LO-2. Human recombinant 15-LO-1 (A–D) or 15-LO-2 (E–H) were incubated at 37 °C in HEPES 25 mM containing 0.01% triton. A total of 10 μM of LA (A,D,E,H); 1-LG (B,D,F,H) or LEA (D,H) were added for 5 min (15-LO-1) or 15 min (15-LO-2). NaBH4 was then added for 5 min and incubations were stopped by the addition of 0.5 mL of cold (−20 °C) MeOH containing 0.01% acetic acid and the internal standards. Samples then were processed for LC-MS/MS analyses as described in methods. Results are the mean (±SEM) of 3 independent experiments.

[14] = molecular target: T5, human recombinant 15-LO-1; test: Metabolism of substrates by recombinant 15-LO-1, LC-MS/MS; assay type: biochemical; settings: 10 µM 1-LG, 5 min, 37 °C
Protocol: as §4, §5

[15] = system: human neutrophils; test: Inhibition of 13-HODE-G and 13-HODE-EA biosynthesis by 15-LO inhibitors in neutrophils; assay type: cell-based; settings: inhibitor 10 µM 5 min, then 3 µM LEA or 1-LG 5 min
Description: Figure 9 Inhibition of 13-HODE-G and 13-HODE-EA biosynthesis by 15-LO inhibitors in human eosinophils and neutrophils. […] Samples then were processed for LC-MS/MS analyses as described in methods. Results are the mean (±SEM) of 4 independent experiments.

[16] = intracellular calcium elevation

Chain of human recombinant CB1 receptor (P21554 whole entry): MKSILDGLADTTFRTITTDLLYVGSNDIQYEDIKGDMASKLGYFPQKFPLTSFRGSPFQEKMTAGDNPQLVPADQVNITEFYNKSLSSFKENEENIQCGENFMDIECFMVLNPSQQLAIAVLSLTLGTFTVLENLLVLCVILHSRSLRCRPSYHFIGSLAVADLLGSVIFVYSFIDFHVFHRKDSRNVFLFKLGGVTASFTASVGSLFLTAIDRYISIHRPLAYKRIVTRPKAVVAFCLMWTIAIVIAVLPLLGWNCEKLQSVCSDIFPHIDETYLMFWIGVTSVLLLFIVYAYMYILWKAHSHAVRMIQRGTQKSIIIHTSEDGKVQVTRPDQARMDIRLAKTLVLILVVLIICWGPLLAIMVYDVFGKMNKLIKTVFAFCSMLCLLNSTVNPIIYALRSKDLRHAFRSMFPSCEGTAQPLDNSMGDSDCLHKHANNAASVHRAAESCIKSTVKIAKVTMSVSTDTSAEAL
T2 sequence (Q8NER1 whole entry): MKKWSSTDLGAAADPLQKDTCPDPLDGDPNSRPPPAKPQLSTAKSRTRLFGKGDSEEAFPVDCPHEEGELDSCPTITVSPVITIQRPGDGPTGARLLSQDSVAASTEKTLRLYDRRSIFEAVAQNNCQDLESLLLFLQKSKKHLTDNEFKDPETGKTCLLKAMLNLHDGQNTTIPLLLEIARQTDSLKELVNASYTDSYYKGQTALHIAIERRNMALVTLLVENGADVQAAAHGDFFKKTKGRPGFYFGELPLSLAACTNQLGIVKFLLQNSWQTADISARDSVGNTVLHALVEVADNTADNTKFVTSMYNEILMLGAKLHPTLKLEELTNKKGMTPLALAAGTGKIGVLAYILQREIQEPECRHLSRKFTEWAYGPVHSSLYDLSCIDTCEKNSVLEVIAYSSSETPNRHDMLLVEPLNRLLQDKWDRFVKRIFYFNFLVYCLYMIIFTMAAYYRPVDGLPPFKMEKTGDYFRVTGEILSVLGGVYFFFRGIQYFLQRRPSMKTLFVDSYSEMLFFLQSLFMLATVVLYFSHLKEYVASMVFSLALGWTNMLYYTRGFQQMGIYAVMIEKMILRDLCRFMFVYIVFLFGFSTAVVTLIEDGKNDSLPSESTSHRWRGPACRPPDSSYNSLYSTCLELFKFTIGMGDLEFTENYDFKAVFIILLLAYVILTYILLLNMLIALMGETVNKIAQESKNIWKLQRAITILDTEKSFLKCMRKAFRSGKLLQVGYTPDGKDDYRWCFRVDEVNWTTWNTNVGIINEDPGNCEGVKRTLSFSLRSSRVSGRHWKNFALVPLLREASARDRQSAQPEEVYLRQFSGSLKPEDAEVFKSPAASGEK
Chain of human recombinant CB2 receptor (P34972 whole entry): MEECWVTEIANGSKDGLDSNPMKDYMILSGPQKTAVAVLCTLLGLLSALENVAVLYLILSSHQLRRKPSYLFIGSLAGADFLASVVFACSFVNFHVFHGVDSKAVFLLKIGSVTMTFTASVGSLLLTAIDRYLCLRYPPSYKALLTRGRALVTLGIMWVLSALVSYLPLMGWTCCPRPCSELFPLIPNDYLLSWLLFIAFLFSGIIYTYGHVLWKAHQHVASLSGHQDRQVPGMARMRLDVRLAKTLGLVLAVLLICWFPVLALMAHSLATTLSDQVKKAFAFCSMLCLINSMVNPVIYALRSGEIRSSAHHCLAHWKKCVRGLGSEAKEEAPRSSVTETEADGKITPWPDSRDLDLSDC

CB1 Receptor Max Tested (% Displacement) [1] | IC50 [1] | Ki [1] | CB2 Receptor Max Tested (% Displacement) [4] | IC50 [4] | Ki [4] | IC50 [5] | Emax [5, 16] | Time of maximal levels of 15-lipoxygenase metabolite [6] | Compound | Times more metabolite in eosinophils than in neutrophils [6] | also measured
10 µM (18.90 ± 6.1) % | > 10 µM | > 10 µM | 10 µM (33.58 ± 21.3) % | > 10 µM | > 10 µM | > 50 µM | < 10% | – | CCCCC[C@H](O)/C=C/C=C\CCCCCCCC(=O)OCC(O)CO (stereo partly shown) [13-HODE-G, 13-hydroxy-octodecadienoyl-glycerol] | ~ 60 times | Stimulation of PPAR-α transcriptional activity [2]: did not stimulate; Level in human epidermis samples [3]: 21.9 ± 6.2 fmol/mg tissue; Stimulation of PPAR-γ transcriptional activity [7]: did not stimulate
– | – | – | – | – | – | – | – | 15 min | CCCCC/C=C\C/C=C\CCCCCCCC(=O)O [LA, Linoleic acid] | – | Time of peak 13-HODE biosynthesis ([12]; 3 µM LA): 10 s; Time to biosynthesis of 13-HODE derivatives ([12]; 3 µM substrate): 10 to 30 s

Second part, the molecule before the results:

Compound | CB1 Receptor Max Tested (% Displacement) [1] | IC50 [1] | Ki [1] | CB2 Receptor Max Tested (% Displacement) [4] | IC50 [4] | Ki [4] | IC50 [5] | Emax [5, 16] | Time of maximal levels of 15-lipoxygenase metabolite [6] | Times more metabolite in eosinophils than in neutrophils [6] | also measured
CCCCC[C@H](O)/C=C/C=C\CCCCCCCC(=O)NCCO [13-HODE-EA, N-13-hydroxy-octodecadienoyl-ethanolamine] | – | – | – | – | – | – | – | – | – | ~ 500 times | 13-HODE-EA/13-HODE ratio [8]: ~ 3; Remaining after 15 min [9]: 90%; 13-HODE-EA/13-HODE ratio [10]: ~ 3.5; Remaining after 15 min [11]: 60%
CCCCC/C=C\C/C=C\CCCCCCCC(=O)OCC(O)CO (stereo not shown) [1-LG, 1-linoleoyl-glycerol] | 10µM (95.8 ± 16.4) % | 2.81 ± 0.85 µM | 0.31 ± 0.15 µM | 10 µM (28.45 ± 9.4) % | > 10 µM | > 10 µM | 2.7 ± 0.3 µM | 46.5 ± 0.9% | 15 min | – | Efficacy of the reaction (1-LG to 13-HODE-G) [13]: 40%; Efficacy of the reaction (1-LG to 13-HODE-G) [14]: 23%; Time to biosynthesis of 13-HODE derivatives ([12]; 3 µM substrate): 10 to 30 s; EC50 ([5]; intracellular calcium elevation, read-out: Potency (EC50)): 230 ± 20 nM; Delay before metabolism into 15-lipoxygenase counterpart [6]: ~ 1 min
CC(Cc1ccc(O)c(O)c1)C(C)Cc1ccc(O)c(O)c1 (stereo not shown) [NDGA] | – | – | – | – | – | – | – | – | – | – | Inhibition of biosynthesis of the investigated 15-LO metabolites [15]: did not inhibit
CCCCC[C@H](O)/C=C/C=C\CCCCCCCC(=O)O [13-HODE, 13(S)-hydroxy-octodecadienoic acid] | 10 µM (7.56 ± 2.3) % | > 10 µM | > 10 µM | 10 µM (38.34 ± 5.4) % | > 10 µM | > 10 µM | > 50 µM | < 10% | – | ~ 30 times | Stimulation of PPAR-α transcriptional activity [2]: robust effect
CCCCC/C=C\C/C=C\CCCCCCCC(=O)NCCO [LEA, N-linoleoyl-ethanolamine] | – | – | – | – | – | – | – | – | 15 min | – | Ratio 13-HODE/13-HODE-EA [12]: 2.67 ± 0.590; Time to biosynthesis of 13-HODE derivatives [12]: 10 to 30 s; Delay before metabolism into 15-lipoxygenase counterpart [6]: ~ 1 min
